Results from patent publication US20060135569A1, “Use of benzisoselenazolone compounds against ischemic myocardial damage” (priority 2002, published 2006).
Marks after values point to notes of the source that are not given here.

What was measured:
[1] = system: acute myocardial ischemia in anesthetized dogs; assay: Acute myocardial ischemia and infarction in anesthetized dogs; format: in vivo, dog
Experimental: Dogs were divided into three groups: 1, vehicle control group, PEG 1 ml/kg, n=5; 2, dilthiazem group, 5 mg/kg, n=5; 3, IMM-004 group, 30 mg/kg, n=5. The tested drugs were prepared in distilled water at volume of 1 ml/kg. The tested items were administrated via duodenum by animals.

[2] = system: TA98; assay: Ames test, strain TA98; format: cell-based
Experimental: (§1) To assess the mutagenic effects of 5 compounds (IMM-004; IMM-065; IMM-127; IMM-128; IMM-313), the Ames test was performed in 4 strains (TA97; TA98; TA100; TA102). The experiment was conducted with compounds at 4 concentration levels (0.5, 5, 50 and 500 μg/dish). […]

[3] = system: TA102; assay: Ames test, strain TA102; format: cell-based
Experimental: as §1

[4] = biological target: T1, Na^+/Ca^2+ exchanger (Cavia porcellus, UniProt P48766); assay: Na^+/Ca^2+ exchange current (INa—Ca), whole-cell patch clamp, intracellular Na^+ overload cell model; format: cell-based, guinea pig
T1 construct: endogenous in cells; host or cells: freshly isolated guinea pig ventricular myocytes
From the text: 1. Establishment of Assaying Method for Biphasical Current Detection in Na^+/Ca^2+ Exchange System
Since the reverse mode of Na^+/Ca^2+ exchange process is one of the main mechanisms involving in ischemia/reperfusion insult, it is of great importance to establish cell model represented reverse mode Na^+/Ca^2+ exchange process for the development of drugs against ischemic injury. Therefore, we successfully established cell model of reverse mode Na^+/Ca^2+ exchange system by intracellular Na^+ dialysis technique, and recorded Na^+/Ca^2+ exchange currents by patch clamp experiment.
Internal solution contained certain concentration of NaCl was filled to the microcatheter, and ion exchange process between the cellular and internal solutions was conducted after whole cell currents were recorded by patch clamp. Na^+ contained in the internal solution was dialyzed into the cell; result in the high intracellular Na^+ concentration. After that, the cell was champed at a holding potential of −40 mV, then depolarized to +60 mV and followed by a conversely declining ramp stimuli at a speed of 80 mV·s^−1 and 2 s conditioning pulse, then repolarized to −100 mV with a frequency of 0.05 Hz. Under the stimulation protocol, current from outward to the inward direction was recorded by perfusing modified biphasical Tyrode solution (in which the outward and inward currents can be recorded simultaneously) with the addition of 1 mmol·L^−1 of BaCl2 and 2 mmol·L^−1 of CsCl to block K^+ channels, 1 μmol·L^−1 of verapamil to block L-type Ca^2+ channels, and 20 μmol·L^−1 of ouabain to block Na^+/K^+ ATPase, and 20 mmol·L^−1 of TEA to block potassium channels. The recorded inward currents were presented in a linear manner owing to the blockade of other time-dependent currents. With the increase of intracellular Na^+ level and prolongation of time, the reverse mode of Na^+/Ca^2+ exchange process was activated. […] Under such experimental conditioning, the maximum reverse mode current was recorded 3 min after cell crushed. No significant “run-down” was observed within the record period of 8 minutes. The inward and outward current were inhibited by 5 mmol·L^−1 of Ni^2+ treatment, and the experiment result in two current-voltage curves in the absence or presence of Ni^2+. The Ni^2+ sensitive current, also called electrophysiological Na^+/Ca^2+ exchange current (INa·Ca), was the minus result of two current-voltage curves. The reverse mode potential of INa—Ca was about −20 mV
Male guinea pigs weighting 250˜280 g provided by the Animal Center of the Chinese Academy of Medical Sciences were hammered and sacrificed. The chest was opened and the heart was removed quickly. Fatty tissue and pericardium were removed in a Ca^2+-free solution at 4° C., and heart was sequentially mounted on a Langendorff apparatus. First, the heart was perfused conversely via the aorta for 6 min with Ca^2+-free solution in order to wash out residual blood, then the heart expands and the color of it turns to pink. Then the heart was perfused with Ca^2+-free solution containing 0.1 mg/ml of pronase E, 0.5 mg/ml defatted bovine serum albumin (BSA) and 150 μM Ca^2+ for 2˜3 min, until the heart expanded and became soft. The atrium was removed, and the digested heart was minced with scissors, stirred in a beaker at 37° C. for 5˜10 min. The supernatant was diluted with Ca^2+-free solution containing 0.5 mg/ml BSA and 1.8 mM Ca^2+. The supernatant was placed at room temperature (20˜24° C.) for 1 hr and then subjected to the experiment. During the whole perfusion period, pressure was kept at 70 cmH2O and the temperature of solution was kept at 37° C. with continuously gassed with 95% O2 and 5% CO2.
Rod-shaped cells with clear striations and intact membrane were used. […]

[5] = system: TA97; TA98; TA100; TA102; assay: Ames (mutagenesis) test, overall result in 4 strains; format: cell-based; details: 0.5, 5, 50 and 500 μg/dish
Experimental: as §1

[6] = system: TA100; assay: Ames test, strain TA100; format: cell-based
Experimental: as §1

[7] = system: arrhythmia caused by ischemia/reperfusion insults in anaesthetic rats; assay: Ischemia/reperfusion arrhythmia in anaesthetic rats, intravenous injection; format: in vivo, rat; details: 3 mg/Kg intravenous (femoral vein), rats
From the text: (1) Protective Effects of the Tested Compounds on Myocardial Insults in Rats after Intravenously Injection
Arrhythmic potency induced by myocardial insults was used to assess the potential protective effect of the compounds.

[8] = system: isolated rat hearts subjected to ischemia-reperfusion (I/R); assay: Isolated heart subjected to ischemia/reperfusion injury (arrhythmia); details: for AAT: arrhythmic occurrence time, Time / VF (ventricular fibrillation) Incidence rate (%) / VPS (ventricular premature beats) Incidence rate (%) / VT (ventricular tachycardia) Incidence rate (%): 10^−6 M, isolated heart ischemia/reperfusion
Experimental: Based on the pre-electrophysiological cell model screening, we have compared the inhibition ratios of the outward current by reverse-transportation of Na^+/Ca^2+ exchange, and further in vitro tests on isolated rat hearts subjected to ischemia-reperfusion (I/R) were conducted. Prolongation of ventricular arrhythmic, incidence rate of ventricular extrasystole, ventricular tachycardia/ventricular fibrillation (VT/VF) were recorded to evaluate the protective actions of drugs on myocardial injury.
On the basis of above screening results obtained from electrophysiological studies, and the result from comparative study on the research of the inhibitory effect of compounds on reverse mode Na^+/Ca^2+ exchange process, 7 effective compounds were subjected to in vitro study. Among which, IMM-313, IMM-004 and IMM-132 have structures containing chlorine; IMM-127, IMM-128 and IMM-129 have structures containing fluorine; and IMM-065 has a structure containing OH. The experiment performed in the isolated heart subjected to ischemia/reprefusion insult. Prolongation of ventricular arrhythmic, incidence of ventricular extrasystole, ventricular tachycardia/ventricular fibrillation (VT/VF) were recorded in order to evaluate the protective actions of drugs on myocardial injury.

[9] = system: TA97; assay: Ames test, strain TA97; format: cell-based
Experimental: as §1

[10] = N-BT staining, Dilthiazem 5 mg/kg, IMM-004 30 mg/kg, % according to b137
[11] = Example 1 table, myocardial cell
[12] = screening of 22 candidate compounds

Structure (SMILES): COc1ccc([C@@H]2Sc3ccccc3N(CCN(C)C)C(=O)[C@@H]2OC(C)=O)cc1 [Dilthiazem, reference compound]
- blood oxygen concentration ([1]; 5 mg/kg): Significant increase
- myocardial oxygen consumption ([1]; 5 mg/kg): decrease
- severity of myocardial ischemia (Σ-ST), in words ([1]; 5 mg/kg via duodenum, from 90 min, lasted for 180 min after administration): reduced
- Infarction area/ heart area [1, 10]: 1.54 ± 0.40
- Infarction area/ventricle area [1, 10]: 3.54 ± 3.74
- Infarction area mm^2 ([1]; N-BT staining, Dilthiazem 5 mg/kg, IMM-004 30 mg/kg, X ± SD): 186.50 ± 21.2*** mm^2
- Myocardial infarction size, in words ([1]; N-BT staining, IMM-004 30 mg/kg, dilthiazem 5 mg/kg): significantly reduced
- Coronary flows, in words ([1]; after treatment, dilthiazem 5 mg/kg, IMM-004 30 mg/kg): significantly increased

Structure (SMILES): C/C(=N\O)c1ccc(-n2[se]c3ccccc3c2=O)cc1 [IMM-065]
- TA98 +S9 ([2]; 0.5 μg/dish): 56.50 ± 4.50
- TA98 −S9 ([2]; 0.5 μg/dish): 52.00 ± 3.74
- TA98 +S9 ([2]; 5 μg/dish): 61.67 ± 11.15
- TA98 −S9 ([2]; 5 μg/dish): 42.00 ± 10.80
- TA98 +S9 ([2]; 50 μg/dish): 42.00 ± 5.72
- TA98 −S9 ([2]; 50 μg/dish): 45.33 ± 5.44
- TA98 +S9 ([2]; 500 μg/dish): 168.00 ± 32.00
- TA98 −S9 ([2]; 500 μg/dish): 54.00 ± 12.83
- TA102 +S9 ([3]; 0.5 μg/dish): 270.00 ± 10.00
- TA102 −S9 ([3]; 0.5 μg/dish): 244.00 ± 12.33
- TA102 +S9 ([3]; 5 μg/dish): 308.00 ± 31.16
- TA102 −S9 ([3]; 5 μg/dish): 246.00 ± 24.00
- TA102 +S9 ([3]; 50 μg/dish): 339.33 ± 48.99
- TA102 −S9 ([3]; 50 μg/dish): 217.33 ± 15.43
- TA102 +S9 ([3]; 500 μg/dish): 287.33 ± 41.89
- TA102 −S9 ([3]; 500 μg/dish): 215.00 ± 75.59
- Inhibitory rate of inward INa—Ca (%) [4, 11]: 43%
- Inhibitory rate of outward INa—Ca (%) [4, 11]: 55%
- Inhibitory rate of inward INa—Ca (%) [4, 12]: 43%
- Inhibitory rate of outward INa—Ca (%) [4, 12]: 55* %
- mutagenic effect (Ames test) [5]: No evidence for a mutagenic effect
- TA100 +S9 ([6]; 0.5 μg/dish): 176.67 ± 24.57
- TA100 −S9 ([6]; 0.5 μg/dish): 153.67 ± 13.47
- TA100 +S9 ([6]; 5 μg/dish): 167.00 ± 58.86
- TA100 −S9 ([6]; 5 μg/dish): 60.33 ± 19.91
- TA100 +S9 ([6]; 50 μg/dish): 180.33 ± 29.83
- TA100 −S9 ([6]; 50 μg/dish): 108.67 ± 6.79
- TA100 +S9 ([6]; 500 μg/dish): 0
- TA100 −S9 ([6]; 500 μg/dish): 62.33 ± 20.53
- incidence and duration of VT, VF, VE / ventricular arrhythmic [7]: no significant effect
- protective effects on myocardial insults ([8]; 10^−6M, isolated heart): significant protective effects
- AAT: arrhythmic occurrence time, Time [8]: 13.09 ± 3.76 min
- VF (ventricular fibrillation) Incidence rate (%) [8]: 50%
- VPS (ventricular premature beats) Incidence rate (%) [8]: 30%
- VT (ventricular tachycardia) Incidence rate (%) [8]: 70%
- TA97 +S9 ([9]; 0.5 μg/dish): 249.33 ± 35.83
- TA97 −S9 ([9]; 0.5 μg/dish): 62.67 ± 4.49
- TA97 +S9 ([9]; 5 μg/dish): 76.00 ± 15.29
- TA97 −S9 ([9]; 5 μg/dish): 73.67 ± 6.64
- TA97 +S9 ([9]; 50 μg/dish): 82.67 ± 12.92
- TA97 −S9 ([9]; 50 μg/dish): 69.67 ± 3.77
- TA97 +S9 ([9]; 500 μg/dish): 0
- TA97 −S9 ([9]; 500 μg/dish): 59.67 ± 0.94

Structure (SMILES): O=c1c2cc(F)ccc2[se]n1-c1cccnc1 [IMM-128, 5-fluoro-2-(3-pyridyl)-1,2-benz-isoselenazol-3(2H)-one]
- TA98 +S9 ([2]; 0.5 μg/dish): 40.67 ± 16.05
- TA98 −S9 ([2]; 0.5 μg/dish): 64.00 ± 6.48
- TA98 +S9 ([2]; 5 μg/dish): 46.00 ± 3.00
- TA98 −S9 ([2]; 5 μg/dish): 69.33 ± 12.81
- TA98 +S9 ([2]; 50 μg/dish): 56.00 ± 9.63
- TA98 −S9 ([2]; 50 μg/dish): 71.33 ± 12.26
- TA98 +S9 ([2]; 500 μg/dish): 31.33 ± 6.24
- TA98 −S9 ([2]; 500 μg/dish): 83.67 ± 5.79
- TA102 +S9 ([3]; 0.5 μg/dish): 277.33 ± 15.17
- TA102 −S9 ([3]; 0.5 μg/dish): 214.67 ± 8.22
- TA102 +S9 ([3]; 5 μg/dish): 234.67 ± 80.37
- TA102 −S9 ([3]; 5 μg/dish): 270.67 ± 12.04
- TA102 +S9 ([3]; 50 μg/dish): 333.00 ± 60.83
- TA102 −S9 ([3]; 50 μg/dish): 210.00 ± 31.54
- TA102 +S9 ([3]; 500 μg/dish): 274.00 ± 37.98
- TA102 −S9 ([3]; 500 μg/dish): 296.00 ± 22.86
- Inhibitory rate of inward INa—Ca (%) [4, 11]: 42%
- Inhibitory rate of outward INa—Ca (%) [4, 11]: 44%
- Inhibitory rate of inward INa—Ca (%) [4, 12]: 42%
- Inhibitory rate of outward INa—Ca (%) [4, 12]: 44* %
- mutagenic effect (Ames test) [5]: No evidence for a mutagenic effect
- TA100 +S9 ([6]; 0.5 μg/dish): 167.33 ± 17.98
- TA100 −S9 ([6]; 0.5 μg/dish): 127.33 ± 20.04
- TA100 +S9 ([6]; 5 μg/dish): 149.67 ± 19.60
- TA100 −S9 ([6]; 5 μg/dish): 116.50 ± 30.50
- TA100 +S9 ([6]; 50 μg/dish): 141.33 ± 16.36
- TA100 −S9 ([6]; 50 μg/dish): 135.00 ± 14.99
- TA100 +S9 ([6]; 500 μg/dish): 107.67 ± 13.47
- TA100 −S9 ([6]; 500 μg/dish): 100.00 ± 33.67
- AAT: arrhythmic occurrence time, Time [8]: 22.10 ± 3.49 min
- VF (ventricular fibrillation) Incidence rate (%) [8]: 50%
- VPS (ventricular premature beats) Incidence rate (%) [8]: 25%
- VT (ventricular tachycardia) Incidence rate (%) [8]: 50%
- TA97 +S9 ([9]; 0.5 μg/dish): 70.00 ± 11.86
- TA97 −S9 ([9]; 0.5 μg/dish): 59.33 ± 10.27
- TA97 +S9 ([9]; 5 μg/dish): 63.00 ± 31.00
- TA97 −S9 ([9]; 5 μg/dish): 52.67 ± 3.21
- TA97 +S9 ([9]; 50 μg/dish): 60.33 ± 17.59
- TA97 −S9 ([9]; 50 μg/dish): 59.00 ± 3.56
- TA97 +S9 ([9]; 500 μg/dish): 78.50 ± 21.50
- TA97 −S9 ([9]; 500 μg/dish): 65.33 ± 2.35
